Data set [1] relates to SMMC-7721 (human hepatocellular carcinoma). Briefly: cells. The procedure: (§1) To determine the cytotoxicity of garciesculentone B, its IC50 values on HepG2, SMMC-7721, MCF-7, and MDA-MB-231 cell lines are measured. […] In addition, further study is taken to test whether garciesculentone B can exert effects on cell motility. A wound healing assay using ECA109 cells is performed in this regard.
(§2) Cytotoxicity Assay. Cytotoxic activitiy of garciesculentone B were evaluated by MTT assay using SMMC-7721 (human hepatocellular carcinoma), HepG2 (human hepatocellular carcinoma), MCF-7 (human breast adenocarcinoma), and MDA-MB-231 (human breast adenocarcinoma). Paclitaxel was used as positive control. The detailed methodology for cytotoxicity assay has already been described in Xia, Z.-X.; Zhang, D.-D.; Liang, S.; Lao, Y.-Z.; Zhang, H.; Tan, H.-S.; Chen, S.-L.; Wang, X.-H.; Xu, H.-X., Bioassay-Guided Isolation of Prenylated Xanthones and Polycyclic Acylphloroglucinols from the Leaves of Garcinia nujiangensis. Journal of Natural Products 2012.

The subject of data set [2] is HepG2 (human hepatocellular carcinoma). The procedure:
as §1, §2

Data set [3] has as its system MCF-7 (human breast adenocarcinoma). Format: cell-based. An excerpt:
(§3) Cytotoxicity Assay. […] Paclitaxel was used as positive control. […] Journal of Natural Products 2012.

Data set [4] deals with MDA-MB-231 (human breast adenocarcinoma). Format: cell-based.
Source text: as §3

Data set [5] deals with human esophageal carcinoma (ECA109) cells. Briefly: Wound healing assay. The class given is cell-based. The procedure: Wound healing assay. A wound healing assay was performed by using a modified procedure described previously in Jones, J. I.; Gockerman, A.; Busby, W. H., Jr.; Wright, G.; Clemmons, D. R., Insulin-like growth factor binding protein 1 stimulates cell migration and binds to the alpha 5 beta 1 integrin by means of its Arg-Gly-Asp sequence. Proc Natl Acad Sci USA 1993, 90 (22), 10553-7. Briefly, cells were plated in 24 wells plate at 70% confluence in conditioned medium. 24 hours after seeding the monolayers were wounded by scoring with a sterile plastic 20 μL micropipette tip, then rinsed several times with media to remove cell debris and then incubated in completed medium in the absence or presence of tested compounds (10 and 20 μg/mL) for various periods of time up to 36 hours. Cell migration into the wound surface was monitored by Olympus IX71 microscopy and digitally photographed.

The results in this text go back to patent publication US20140194498A1, “POLYISOPRENYLATED TETRACYCLIC XANTHONE WITH ANTICANCER ACTIVITY” (Hong Kong Baptist University, priority 2013, published 2014).

One may read the IC50 as the concentration needed to halve the response being measured.

“Also recorded” adds a separate entry of the source. Where two headings read alike, the source gives them in different places.

For the compound `CC(=O)O[C@H]1C(=O)[C@@]2(C)[C@H]([C@H](OC(=O)c3ccccc3)[C@]3(O)C[C@H](OC(=O)[C@H](O)[C@@H](NC(=O)c4ccccc4)c4ccccc4)C(C)=C1C3(C)C)[C@]1(OC(C)=O)CO[C@@H]1C[C@@H]2O` [Palcitaxel, Paclitaxel, reference compound], the IC50 in data set [1] (Homo sapiens, SMMC-7721, read-out: Cytotoxicity IC50, SMMC-7721) was 0.0091 µM.

In the case of garciesculentone B, the IC50 in data set [1] worked out at 11.8 µM; in data set [2] it was 31.4 µM; in data set [3], 23.7 µM; in data set [4], 33.9 µM. Moreover, the “Cell migration into the wound area (antimigration effect)” value in data set [5] (10 and 20 μg/mL) is listed as “significant delay in cells moving into the wound area; also recorded: shows antimigration effect on ECA109 cells”. Also, the Wound closure result in data set [5] (up to 36 hours, control wound edges indistinguishable by 36 hours) is “do not migrate into and completely close the wound”.
